{"source": "the supplement of paper PMC10307832", "assay_in_all_cases": "relative viability (nuclei count vs DMSO), 5 days (fraction); higher = more cells survive", "key": {"[1]": {"tested_on": "201T", "procedure,_shortened": "(§1)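 The day after seeding in 1536-well plates, lung cancer cell lines were treated by pin tool with a single drug, or with a fixed anchor-drug dose together with five library-drug doses (not always all listed) in √10 steps. After 5 days, a combined fix-and-stain solution (final 0.05% Triton X-100, 1% formaldehyde, 1 ug/ml Hoechst) was added. Nuclei counted on 4× images gave relative viability as treated counts over vehicle counts, reported as the median of duplicate plates.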"}, "[2]": {"tested_on": "EMC-BAC-2", "procedure,_shortened": "as §1"}, "[3]": {"tested_on": "EPLC-272H", "procedure,_shortened": "as §1"}, "[4]": {"tested_on": "HCC-78", "procedure,_shortened": "as §1"}, "[5]": {"tested_on": "LCLC-103H", "procedure,_shortened": "as §1"}, "[6]": {"tested_on": "NCI-H1355", "procedure,_shortened": "as §1"}, "[7]": {"tested_on": "NCI-H1666", "procedure,_shortened": "as §1"}, "[8]": {"tested_on": "NCI-H1755", "procedure,_shortened": "as §1"}, "[9]": {"tested_on": "NCI-H1792", "procedure,_shortened": "as §1"}, "[10]": {"tested_on": "NCI-H1793", "procedure,_shortened": "as §1"}, "[11]": {"tested_on": "NCI-H1975", "procedure,_shortened": "as §1"}, "[12]": {"tested_on": "NCI-H2126", "procedure,_shortened": "as §1"}, "[13]": {"tested_on": "NCI-H2170", "procedure,_shortened": "as §1"}, "[14]": {"tested_on": "NCI-H2342", "procedure,_shortened": "as §1"}, "[15]": {"tested_on": "NCI-H441", "procedure,_shortened": "as §1"}, "[16]": {"tested_on": "NCI-H520", "procedure,_shortened": "as §1"}, "[17]": {"tested_on": "NCI-H727", "procedure,_shortened": "as §1"}, "[18]": {"tested_on": "NCI-H838", "procedure,_shortened": "as §1"}, "[19]": {"tested_on": "PC-3 [JPC-3]", "procedure,_shortened": "as §1"}, "[20]": {"tested_on": "SK-MES-1", "procedure,_shortened": "as §1"}, "[21]": {"tested_on": "SW 1573", "procedure,_shortened": "as §1"}}}
{"smiles": "Nc1cccc2c1CN(C1CCC(=O)NC1=O)C2=O", "note": "(stereo not drawn) [Lenalidomide] + Nc1ncn([C@H]2C[C@H](O)[C@@H](CO)O2)c(=O)n1 [Decitabine] (partner 2 µM)", "values": [{"measurement": "relative viability", "setting": "[1]; first compound 0.253 µM", "value": 0.874}, {"measurement": "relative viability", "setting": "[1]; first compound 0.8 µM", "value": 0.927}, {"measurement": "relative viability", "setting": "[1]; first compound 2.53 µM", "value": 0.88}, {"measurement": "relative viability", "setting": "[1]; first compound 8 µM", "value": 0.816}, {"measurement": "relative viability", "setting": "[2]; first compound 0.253 µM", "value": 0.998}, {"measurement": "relative viability", "setting": "[2]; first compound 0.8 µM", "value": 0.929}, {"measurement": "relative viability", "setting": "[2]; first compound 2.53 µM", "value": 0.995}, {"measurement": "relative viability", "setting": "[2]; first compound 8 µM", "value": 0.801}, {"measurement": "relative viability", "setting": "[3]; first compound 0.253 µM", "value": 0.382}, {"measurement": "relative viability", "setting": "[3]; first compound 0.8 µM", "value": 0.381}, {"measurement": "relative viability", "setting": "[3]; first compound 2.53 µM", "value": 0.413}, {"measurement": "relative viability", "setting": "[3]; first compound 8 µM", "value": 0.32}, {"measurement": "relative viability", "setting": "[4]; first compound 0.253 µM", "value": 0.731}, {"measurement": "relative viability", "setting": "[4]; first compound 0.8 µM", "value": 0.637}, {"measurement": "relative viability", "setting": "[4]; first compound 2.53 µM", "value": 0.703}, {"measurement": "relative viability", "setting": "[4]; first compound 8 µM", "value": 0.558}, {"measurement": "relative viability", "setting": "[5]; first compound 0.253 µM", "value": 0.72}, {"measurement": "relative viability", "setting": "[5]; first compound 0.8 µM", "value": 0.664}, {"measurement": "relative viability", "setting": "[5]; first compound 2.53 µM", "value": 0.73}, {"measurement": "relative viability", "setting": "[5]; first compound 8 µM", "value": 0.651}, {"measurement": "relative viability", "setting": "[6]; first compound 0.253 µM", "value": 0.36}, {"measurement": "relative viability", "setting": "[6]; first compound 0.8 µM", "value": 0.367}, {"measurement": "relative viability", "setting": "[6]; first compound 2.53 µM", "value": 0.376}, {"measurement": "relative viability", "setting": "[6]; first compound 8 µM", "value": 0.341}, {"measurement": "relative viability", "setting": "[7]; first compound 0.253 µM", "value": 0.791}, {"measurement": "relative viability", "setting": "[7]; first compound 0.8 µM", "value": 0.528}, {"measurement": "relative viability", "setting": "[7]; first compound 2.53 µM", "value": 0.772}, {"measurement": "relative viability", "setting": "[7]; first compound 8 µM", "value": 0.647}, {"measurement": "relative viability", "setting": "[8]; first compound 0.253 µM", "value": 0.763}, {"measurement": "relative viability", "setting": "[8]; first compound 0.8 µM", "value": 0.687}, {"measurement": "relative viability", "setting": "[8]; first compound 2.53 µM", "value": 0.712}, {"measurement": "relative viability", "setting": "[8]; first compound 8 µM", "value": 0.688}, {"measurement": "relative viability", "setting": "[9]; first compound 0.253 µM", "value": 0.568}, {"measurement": "relative viability", "setting": "[9]; first compound 0.8 µM", "value": 0.454}, {"measurement": "relative viability", "setting": "[9]; first compound 2.53 µM", "value": 0.541}, {"measurement": "relative viability", "setting": "[9]; first compound 8 µM", "value": 0.384}, {"measurement": "relative viability", "setting": "[10]; first compound 0.253 µM", "value": 0.464}, {"measurement": "relative viability", "setting": "[10]; first compound 2.53 µM", "value": 0.535}, {"measurement": "relative viability", "setting": "[10]; first compound 8 µM", "value": 0.44}, {"measurement": "relative viability", "setting": "[11]; first compound 0.253 µM", "value": 0.414}, {"measurement": "relative viability", "setting": "[11]; first compound 0.8 µM", "value": 0.334}, {"measurement": "relative viability", "setting": "[11]; first compound 2.53 µM", "value": 0.421}, {"measurement": "relative viability", "setting": "[11]; first compound 8 µM", "value": 0.356}, {"measurement": "relative viability", "setting": "[12]; first compound 0.253 µM", "value": 0.645}, {"measurement": "relative viability", "setting": "[12]; first compound 0.8 µM", "value": 0.611}, {"measurement": "relative viability", "setting": "[12]; first compound 2.53 µM", "value": 0.578}, {"measurement": "relative viability", "setting": "[12]; first compound 8 µM", "value": 0.516}, {"measurement": "relative viability", "setting": "[13]; first compound 0.253 µM", "value": 0.49}, {"measurement": "relative viability", "setting": "[13]; first compound 0.8 µM", "value": 0.429}, {"measurement": "relative viability", "setting": "[13]; first compound 2.53 µM", "value": 0.469}, {"measurement": "relative viability", "setting": "[13]; first compound 8 µM", "value": 0.471}, {"measurement": "relative viability", "setting": "[14]; first compound 0.253 µM", "value": 0.687}, {"measurement": "relative viability", "setting": "[14]; first compound 0.8 µM", "value": 0.678}, {"measurement": "relative viability", "setting": "[14]; first compound 2.53 µM", "value": 0.624}, {"measurement": "relative viability", "setting": "[14]; first compound 8 µM", "value": 0.699}, {"measurement": "relative viability", "setting": "[15]; first compound 0.253 µM", "value": 0.233}, {"measurement": "relative viability", "setting": "[15]; first compound 0.8 µM", "value": 0.229}, {"measurement": "relative viability", "setting": "[15]; first compound 2.53 µM", "value": 0.264}, {"measurement": "relative viability", "setting": "[15]; first compound 8 µM", "value": 0.262}, {"measurement": "relative viability", "setting": "[16]; first compound 0.253 µM", "value": 0.539}, {"measurement": "relative viability", "setting": "[16]; first compound 0.8 µM", "value": 0.548}, {"measurement": "relative viability", "setting": "[16]; first compound 2.53 µM", "value": 0.507}, {"measurement": "relative viability", "setting": "[16]; first compound 8 µM", "value": 0.438}, {"measurement": "relative viability", "setting": "[17]; first compound 0.253 µM", "value": 0.778}, {"measurement": "relative viability", "setting": "[17]; first compound 0.8 µM", "value": 0.637}, {"measurement": "relative viability", "setting": "[17]; first compound 2.53 µM", "value": 0.99}, {"measurement": "relative viability", "setting": "[17]; first compound 8 µM", "value": 0.616}, {"measurement": "relative viability", "setting": "[18]; first compound 0.253 µM", "value": 0.483}, {"measurement": "relative viability", "setting": "[18]; first compound 0.8 µM", "value": 0.404}, {"measurement": "relative viability", "setting": "[18]; first compound 2.53 µM", "value": 0.527}, {"measurement": "relative viability", "setting": "[18]; first compound 8 µM", "value": 0.491}, {"measurement": "relative viability", "setting": "[19]; first compound 0.253 µM", "value": 0.848}, {"measurement": "relative viability", "setting": "[19]; first compound 0.8 µM", "value": 0.807}, {"measurement": "relative viability", "setting": "[19]; first compound 2.53 µM", "value": 0.874}, {"measurement": "relative viability", "setting": "[19]; first compound 8 µM", "value": 0.878}, {"measurement": "relative viability", "setting": "[20]; first compound 0.253 µM", "value": 0.362}, {"measurement": "relative viability", "setting": "[20]; first compound 0.8 µM", "value": 0.342}, {"measurement": "relative viability", "setting": "[20]; first compound 2.53 µM", "value": 0.428}, {"measurement": "relative viability", "setting": "[20]; first compound 8 µM", "value": 0.394}, {"measurement": "relative viability", "setting": "[21]; first compound 0.253 µM", "value": 0.536}, {"measurement": "relative viability", "setting": "[21]; first compound 0.8 µM", "value": 0.625}, {"measurement": "relative viability", "setting": "[21]; first compound 2.53 µM", "value": 0.591}, {"measurement": "relative viability", "setting": "[21]; first compound 8 µM", "value": 0.542}]}
